According to ChEMBL document CHEMBL1909046, “DrugMatrix in vitro pharmacology data”:

What was measured:
Thromboxane-A synthase = molecular target: T1, Thromboxane-A synthase (Homo sapiens, UniProt P24557); experiment: biochemical; assay type: tissue-based, Platelet; conditions: platelet;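 further: enzyme inhibition assay with PGH2 supplied as substrate; in other assays of this panel Not Active means under 50% inhibition at 10 µM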
T1 sequence (P24557 whole entry): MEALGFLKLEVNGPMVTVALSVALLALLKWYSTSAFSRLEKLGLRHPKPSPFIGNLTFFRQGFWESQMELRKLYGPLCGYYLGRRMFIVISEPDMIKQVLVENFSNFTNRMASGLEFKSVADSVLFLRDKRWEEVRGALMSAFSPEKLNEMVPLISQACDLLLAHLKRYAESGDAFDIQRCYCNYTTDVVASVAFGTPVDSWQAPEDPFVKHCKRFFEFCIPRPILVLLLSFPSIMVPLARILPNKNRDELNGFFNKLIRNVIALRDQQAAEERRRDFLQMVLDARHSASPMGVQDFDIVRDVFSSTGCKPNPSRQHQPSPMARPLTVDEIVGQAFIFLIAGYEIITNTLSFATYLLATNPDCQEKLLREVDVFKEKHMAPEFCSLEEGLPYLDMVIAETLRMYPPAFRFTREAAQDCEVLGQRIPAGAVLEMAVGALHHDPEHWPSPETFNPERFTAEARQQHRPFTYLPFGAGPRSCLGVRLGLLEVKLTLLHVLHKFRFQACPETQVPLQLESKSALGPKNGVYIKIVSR

Glucocorticoid receptor = molecular target: T2, Glucocorticoid receptor (Homo sapiens, UniProt P04150); conditions: hela s3; further: in other assays of this panel Not Active means under 50% inhibition at 10 µM
T2 sequence (P04150 whole entry): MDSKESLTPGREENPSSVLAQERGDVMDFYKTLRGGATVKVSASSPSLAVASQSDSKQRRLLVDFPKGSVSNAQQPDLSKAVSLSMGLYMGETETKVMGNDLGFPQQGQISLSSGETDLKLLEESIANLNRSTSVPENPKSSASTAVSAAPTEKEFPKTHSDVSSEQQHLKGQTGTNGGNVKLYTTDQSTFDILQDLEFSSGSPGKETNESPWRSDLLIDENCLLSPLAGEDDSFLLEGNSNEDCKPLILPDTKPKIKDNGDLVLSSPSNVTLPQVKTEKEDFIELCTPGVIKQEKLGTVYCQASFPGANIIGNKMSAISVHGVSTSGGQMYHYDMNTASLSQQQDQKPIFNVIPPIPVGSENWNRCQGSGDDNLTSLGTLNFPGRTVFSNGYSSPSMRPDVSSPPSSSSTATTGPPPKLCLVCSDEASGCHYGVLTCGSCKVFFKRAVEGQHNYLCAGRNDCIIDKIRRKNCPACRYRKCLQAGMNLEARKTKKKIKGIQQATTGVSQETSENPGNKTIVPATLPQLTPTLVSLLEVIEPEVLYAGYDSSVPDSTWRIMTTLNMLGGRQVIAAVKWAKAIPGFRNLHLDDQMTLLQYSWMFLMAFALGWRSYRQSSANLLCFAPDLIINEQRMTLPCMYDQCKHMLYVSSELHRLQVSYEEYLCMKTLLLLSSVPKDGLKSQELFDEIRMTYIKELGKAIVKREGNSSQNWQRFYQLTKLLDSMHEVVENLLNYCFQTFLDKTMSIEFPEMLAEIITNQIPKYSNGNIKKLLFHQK

[1] = molecular target: Sodium-dependent dopamine transporter (Homo sapiens, UniProt Q01959); experiment: DRUGMATRIX: Dopamine Transporter radioligand binding (ligand: [125I] RTI-55); assay type: cell membranes, CHO-K1, Membrane; conditions: cho-k1; Not Active = under 50% inhibition at 10 µM
Sodium-dependent dopamine transporter, sequence (Q01959 whole entry): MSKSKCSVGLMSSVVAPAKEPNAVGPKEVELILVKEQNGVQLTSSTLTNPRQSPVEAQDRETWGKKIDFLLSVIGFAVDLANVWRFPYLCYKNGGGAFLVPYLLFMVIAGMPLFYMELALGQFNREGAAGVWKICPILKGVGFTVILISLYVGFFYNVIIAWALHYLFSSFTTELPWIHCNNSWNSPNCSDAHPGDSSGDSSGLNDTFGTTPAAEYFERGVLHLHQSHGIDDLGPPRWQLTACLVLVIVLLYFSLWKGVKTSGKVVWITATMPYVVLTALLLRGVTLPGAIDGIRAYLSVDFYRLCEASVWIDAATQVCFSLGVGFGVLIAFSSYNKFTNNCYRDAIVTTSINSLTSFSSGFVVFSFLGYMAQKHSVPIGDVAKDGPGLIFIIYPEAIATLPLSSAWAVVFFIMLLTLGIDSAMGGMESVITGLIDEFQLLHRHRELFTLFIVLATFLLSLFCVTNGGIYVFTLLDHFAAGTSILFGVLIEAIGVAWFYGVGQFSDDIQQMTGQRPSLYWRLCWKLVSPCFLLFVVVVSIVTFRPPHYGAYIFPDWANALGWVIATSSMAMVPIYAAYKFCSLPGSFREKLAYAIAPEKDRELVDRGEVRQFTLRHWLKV

D(1A) dopamine receptor = D(1A) dopamine receptor (Homo sapiens, UniProt P21728); experiment: DRUGMATRIX: Dopamine D1 radioligand binding (ligand: [3H] SCH-23390); assay type: cell membranes, Membrane; conditions: cho; Not Active = under 50% inhibition at 10 µM
D(1A) dopamine receptor, sequence (P21728 whole entry): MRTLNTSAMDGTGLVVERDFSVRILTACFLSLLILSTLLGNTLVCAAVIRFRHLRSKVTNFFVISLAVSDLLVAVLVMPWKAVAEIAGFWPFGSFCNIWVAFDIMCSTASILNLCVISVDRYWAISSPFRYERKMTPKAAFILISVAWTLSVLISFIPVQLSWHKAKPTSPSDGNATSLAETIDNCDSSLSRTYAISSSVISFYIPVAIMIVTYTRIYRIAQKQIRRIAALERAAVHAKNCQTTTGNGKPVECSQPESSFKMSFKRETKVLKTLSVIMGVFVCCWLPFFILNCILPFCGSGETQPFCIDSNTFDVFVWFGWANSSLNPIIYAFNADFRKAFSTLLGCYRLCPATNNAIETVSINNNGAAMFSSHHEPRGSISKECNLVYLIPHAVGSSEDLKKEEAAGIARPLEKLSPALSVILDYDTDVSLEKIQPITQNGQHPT

[2] = molecular target: Mitogen-activated protein kinase 1 (Homo sapiens, UniProt P28482); experiment: DRUGMATRIX: Protein Serine/Threonine Kinase, ERK2 enzyme inhibition (substrate: Myelin Basic Protein); parameters: species or system Escherichia coli; conditions: Not Active = under 50% inhibition at 10 µM
Mitogen-activated protein kinase 1, sequence (P28482 whole entry): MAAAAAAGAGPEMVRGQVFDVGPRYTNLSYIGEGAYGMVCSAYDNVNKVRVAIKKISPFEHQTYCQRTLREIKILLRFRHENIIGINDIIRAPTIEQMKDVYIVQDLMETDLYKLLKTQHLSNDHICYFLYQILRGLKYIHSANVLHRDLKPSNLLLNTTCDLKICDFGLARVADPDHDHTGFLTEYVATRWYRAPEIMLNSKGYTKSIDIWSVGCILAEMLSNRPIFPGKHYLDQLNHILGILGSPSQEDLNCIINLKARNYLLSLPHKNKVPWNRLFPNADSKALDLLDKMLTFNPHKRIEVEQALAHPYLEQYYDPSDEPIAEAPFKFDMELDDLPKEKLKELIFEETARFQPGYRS

D(3) dopamine receptor = D(3) dopamine receptor (Homo sapiens, UniProt P35462); experiment: DRUGMATRIX: Dopamine D3 radioligand binding (ligand: [3H] Spiperone); assay type: cell membranes, CHO, Membrane; conditions: cho
D(3) dopamine receptor, sequence (P35462 whole entry): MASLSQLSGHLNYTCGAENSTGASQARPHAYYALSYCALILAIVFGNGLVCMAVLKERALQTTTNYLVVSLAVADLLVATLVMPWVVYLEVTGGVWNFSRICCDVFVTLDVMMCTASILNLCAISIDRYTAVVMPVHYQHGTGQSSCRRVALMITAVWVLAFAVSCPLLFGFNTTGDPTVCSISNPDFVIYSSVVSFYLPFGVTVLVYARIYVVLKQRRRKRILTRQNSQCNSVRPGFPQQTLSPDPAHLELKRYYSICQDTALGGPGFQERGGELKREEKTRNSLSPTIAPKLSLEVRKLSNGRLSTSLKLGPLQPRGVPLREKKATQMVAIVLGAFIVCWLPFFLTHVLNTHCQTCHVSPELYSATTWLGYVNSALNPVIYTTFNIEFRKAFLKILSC

Leukotriene C4 synthase = molecular target: T3, Leukotriene C4 synthase (Cavia porcellus, UniProt A6XA80); assay type: tissue-based, Lung;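 further: enzyme inhibition assay of leukotriene C4 synthase, using LTA4 as the substrate; in other assays of this panel Not Active means under 50% inhibition at 10 µM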
T3 sequence (A6XA80 whole entry): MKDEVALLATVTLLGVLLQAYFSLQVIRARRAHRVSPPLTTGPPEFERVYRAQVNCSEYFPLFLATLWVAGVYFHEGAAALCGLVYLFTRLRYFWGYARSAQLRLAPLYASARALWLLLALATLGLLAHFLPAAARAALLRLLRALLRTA

Measured: IC50

N=C(N)NC(=O)c1nc(Cl)c(N)nc1N [AMILORIDE]
Not Active: all assays above

CCOC(=O)[C@H](CCc1ccccc1)N[C@H]1CCc2ccccc2N(CC(=O)O)C1=O [BENAZEPRIL]
Not Active: all assays above

C[C@@]12C(=O)OC(=O)[C@]1(C)[C@H]1CC[C@@H]2O1 [CANTHARIDIN]
Not Active: all assays above

O=NN(CCCl)C(=O)NCCCl [CARMUSTINE]
Not Active: all assays above

CC1=C(C(=O)O)N2C(=O)[C@@H](NC(=O)[C@H](N)c3ccccc3)[C@H]2SC1 [CEPHALEXIN ANHYDROUS]
Not Active: all assays above

ClC(Cl)Cl [CHLOROFORM]
Not Active: all assays above

C=C1CC[C@H](O)C/C1=C/C=C1\CCC[C@]2(C)[C@@H]([C@H](C)CCCC(C)C)CC[C@@H]12 [CHOLECALCIFEROL]
Not Active: all assays above

CCOC(=O)C(C)(C)Oc1ccc(Cl)cc1 [CLOFIBRATE]
Not Active: all assays above

CN(C)/N=N/c1[nH]cnc1C(N)=O [DACARBAZINE]
Not Active: all assays above

COc1ccc2c(c1)[C@]13CCCC[C@@H]1[C@H](C2)N(C)CC3 [DEXTROMETHORPHAN]
Not Active: all assays above

CC(=O)Nc1c(I)c(NC(C)=O)c(I)c(C(=O)O)c1I [DIATRIZOIC ACID]
Not Active: all assays above

C[C@H]1O[C@@H](O[C@H]2[C@@H](O)C[C@H](O[C@H]3[C@@H](O)C[C@H](O[C@H]4CC[C@@]5(C)[C@H](CC[C@@H]6[C@@H]5CC[C@]5(C)[C@@H](C7=CC(=O)OC7)CC[C@]65O)C4)O[C@@H]3C)O[C@@H]2C)C[C@H](O)[C@@H]1O [DIGITOXIN]
Not Active: all assays above

CCN1CC(CCN2CCOCC2)C(c2ccccc2)(c2ccccc2)C1=O (stereo not given) [DOXAPRAM]
Not Active: all assays above

COc1cccc2c1C(=O)c1c(O)c3c(c(O)c1C2=O)C[C@@](O)(C(=O)CO)C[C@@H]3O[C@H]1C[C@H](N)[C@H](O)[C@H](C)O1 [DOXORUBICIN]
Not Active: all assays above

COc1cccc2c1C(=O)c1c(O)c3c(c(O)c1C2=O)C[C@@](O)(C(=O)CO)C[C@@H]3O[C@H]1C[C@H](N)[C@@H](O)[C@H](C)O1 [EPIRUBICIN]
Not Active: all assays above

NC(=O)NO [HYDROXYUREA]
Not Active: all assays above

CC(C)Cc1ccc(C(C)C(=O)O)cc1 (stereo not given) [IBUPROFEN]
Not Active: all assays above

COc1ccc2c(c1)c(CC(=O)O)c(C)n2C(=O)c1ccc(Cl)cc1 [INDOMETHACIN]
Not Active: all assays above

CCc1c2c(nc3ccc(OC(=O)N4CCC(N5CCCCC5)CC4)cc13)-c1cc3c(c(=O)n1C2)COC(=O)[C@]3(O)CC [IRINOTECAN]
Not Active: all assays above

Nc1ccn([C@@H]2CS[C@H](CO)O2)c(=O)n1 [LAMIVUDINE]
Not Active: all assays above
